According to patent publication US20160039676A1, “Fullerene Derivatives and Their Applications in Organic Photovoltaics” (Nano and Advanced Materials Institute Limited, priority 2014, published 2016):

Tests used:
[1] = Electrochemical properties (onset oxidation/reduction potentials, HOMO, LUMO, gap); format: physicochemical; parameters: Eox / Ered: unit not given here; conditions: for HOMO: HOMO = −e(Eox + 4.32); for Eg: HOMO-LUMO gap; for LUMO: LUMO = −e(Ered + 4.32); for Eox: onset oxidation potential; for Ered: onset reduction potential
Excerpt: The energy difference between HOMO and LUMO is also illustrated in FIG. 4. […] The compounds of formulae 1b-d have similar energy difference between HOMO and LUMO, meaning their potential energy levels are similar. Among the compounds of formulae 1a-d, it appears that the compound of formula 1a has the best potential energy suitable for being applied in organic photovoltaics; the compound of formula 1c is the second best.

[2] = Relative solubility in non-halogenated solvents, evaluated by visual observation; format: physicochemical; conditions: concentration 30 mg/mL
Description: Each of the compounds is added into the test tubes containing five organic solvents at a concentration of 30 mg/mL.

Row | Structure (SMILES) | HOMO [1] | Eg [1] | LUMO [1] | Eox [1] | Ered [1] | Relative solubility in diethyl ether [2] | Relative solubility in toluene [2] | Relative solubility in ethanol [2] | Relative solubility in ethyl acetate [2] | Relative solubility in tetrahydrofuran (THF) ([2]; THF)
1 | Cc1cccc(C)c1C(=O)OC12c3c4c5c6c7c8c(c9c%10c1c1c%11c3c3c%12c4c4c6c6c7c7c%13c8c9c8c9c%10c1c1c%10c%11c3c3c%11c%12c4c4c6c6c7c7c%13c8c8c9c1c1c%10c3c3c%11c4c6c4c7c8c1c34)C52O[Si](C)(C)c1ccccc1 (stereo not drawn) [Formula 1a] | −6.08 eV | 2.41 eV | −3.67 eV | 1.76 | −0.65 | Insoluble | Soluble |  |  | 
2 | Cc1cccc(C)c1C(=O)OC12c3c4c5c6c7c8c(c9c%10c1c1c%11c3c3c%12c4c4c6c6c7c7c%13c8c9c8c9c%10c1c1c%10c%11c3c3c%11c%12c4c4c6c6c7c7c%13c8c8c9c1c1c%10c3c3c%11c4c6c4c7c8c1c34)C52OC[Si](C)(C)c1ccccc1 (stereo not drawn) [Formula 1b] | −6.03 eV | 2.25 eV | −3.78 eV | 1.71 | −0.54 | Insoluble |  | Insoluble | Insoluble | 
3 | Cc1cccc(C)c1C(=O)OC12c3c4c5c6c7c8c(c9c%10c1c1c%11c3c3c%12c4c4c6c6c7c7c%13c8c9c8c9c%10c1c1c%10c%11c3c3c%11c%12c4c4c6c6c7c7c%13c8c8c9c1c1c%10c3c3c%11c4c6c4c7c8c1c34)C52O[Si](C)(C)C(C)(C)C (stereo not drawn) [Formula 1d] | −6.06 eV | 2.22 eV | −3.84 eV | 1.74 | −0.48 | Insoluble |  | Insoluble | Insoluble | Insoluble
4 | CCCC[Si](C)(C)OC12c3c4c5c6c7c8c(c9c%10c1c1c%11c3c3c%12c4c4c6c6c7c7c%13c8c9c8c9c%10c1c1c%10c%11c3c3c%11c%12c4c4c6c6c7c7c%13c8c8c9c1c1c%10c3c3c%11c4c6c4c7c8c1c34)C52OC(=O)c1c(C)cccc1C (stereo not drawn) [Formula 1c] | −6.12 eV | 2.29 eV | −3.83 eV | 1.80 | −0.49 | Insoluble | Soluble | Insoluble | Insoluble | 
